Reference: publication doi:10.1101/2023.04.17.537234, “A biophysical rationale for the selective inhibition of PTP1B over TCPTP by nonpolar terpenoids” (bioRxiv, 2023)

Experiments:
[1] = Solubility; type: physicochemical
[2] = system: PTP1B; settings: PTP1B over TCPTP; cited from earlier work
[3] = target: TCPTP; assay: pNPP enzyme kinetics, inhibition by amorphadiene; type: biochemical, H. Sapiens
Method: (§1) We overexpressed all proteins examined in this study in BL21(DE3) cells by carrying out steps described previously: (i) We used Gibson assembly to introduce mutations for PTP1B or TCPTP encoded by a pET16b vector and transformed sequence-confirmed plasmids into BL21(DE3) cells. (ii) We used an individual colony from each transformation to inoculate 20 mL of LB media, which we incubated at 37°C in an incubator-shaker (225 rpm) for 6 hours, prior to inoculating 1 L of rich induction media (20 g tryptone, 10 g yeast extract, 5 g sodium chloride, 50 μg/mL carbenicillin, 72 mL 5X M9 salts solution, 20 mL of 20% glucose solution). (iii) We grew the resulting inoculum at 37°C and 225 rpm. (iv) At an OD600 of 0.5–0.8, we added 500 μM IPTG to induce protein expression and incubated the induced flasks at 22°C and 225 rpm for 18–20 hours. (v) We pelleted the final culture (5000 rpm for 10 minutes in a Beckman J2-HS floor centrifuge), disposed of the supernatants, and stored the cell pellets at −80°C freezer for future purification. We purified PTP variants with fast protein liquid chromatography (FPLC) using previously described protocols. In brief, we lysed cells with chemical lysis buffer (for each gram of cell pellet, we used 4 mL of 20 mM tris base, 50 mM sodium chloride, 1% Triton X-100, and pH 7.5 supplemented with 2 mg MgSO4–7H2O, 2 mg TAME, 0.5 mL TCEP (0.5 mM), 3.75 μL PMSF solution, 1 mg lysozyme, and 30 U DNase), removed protein debris with saturated ammonium sulfate (20% for PTP1B variants and 10% TCPTP variants, respectively), and extracted the supernatant. We purified PTPs by using nickel affinity chromatography (HisTrap HP with 50 mM Tris-HCl, 300 mM sodium chloride, and 0.5 mM TCEP at pH 7.5 with and without 500 mM imidazole) followed by anion exchange chromatography (HiTrap HP 5 mL with 50 mM HEPES, and 0.5 mM TCEP at pH 7.5 with and without 1 M NaCl). We concentrated final protein fractions into NaCl-free anion exchange buffer ([…], Sartorius) and stored them in 20% glycerol at −80°C.
(§2) We characterized the activity of PTP variants on p-nitrophenyl phosphate (pNPP). In brief, we used 96-well plates to prepare 200-μL reactions with 50 nM enzyme, 50 μg/mL BSA, and varying amorphadiene concentrations (0.5 – 500 μM) in 50 mM HEPES buffer (pH = 7.3) with 10% DMSO. We used 20 mM substrate to initialize the reactions and monitored the formation of p-nitrophenol (pNP) by measuring absorbance at 405 nm at 30-s intervals over 8 minutes (SpectraMax iD3 plate reader). We used standard curves to convert absorbance measurements to product concentrations and used the slopes of the initial rate regime for Vo.

[4] = target: PTP1B; assay: pNPP enzyme kinetics, inhibition by amorphadiene; type: biochemical, H. Sapiens
Method: as §1, §2

solubility [1] | SMILES | selectivity: inhibits PTP1B more potently than TCPTP [2] | IC50 of AD, mutant vs wild-type ([3]; TCPTP K280M) | IC50 of AD, mutant vs wild-type ([3]; TCPTP L158F vs wild-type) | IC50 of AD, mutant vs wild-type ([3]; TCPTP R288Q) | IC50 of AD, mutant vs wild-type ([4]; PTP1B L158F vs wild-type) | IC50 of AD, mutant vs wild-type ([4]; PTP1B M282K) | IC50 of AD, mutant vs wild-type ([4]; PTP1B Q290R)
low solubility | CC(C)=CCC=C(C)C1CC=C(C)CC1 (stereo not drawn) [AB, α-bisabolene] | 5–7 X | – | – | – | – | – | –
– | C=C(C)[C@@H]1CC[C@@H](C)[C@@H]2CCC(C)=C[C@@H]21 [AD, amorphadiene] | 5–7 X | no effect on IC50 | indistinguishable | no effect on IC50 | indistinguishable | reduced potency | reduced potency
– | CCc1oc2cc(S(=O)(=O)Nc3ccc(S(=O)(=O)Nc4nccs4)cc3)ccc2c1C(=O)c1cc(Br)c(O)c(Br)c1 [BBR, 3-(3,5-Dibromo-4-hydroxy-benzoyl)-2-ethyl-benzofuran-6-sulfonic-acid-(4-(thiazol-2-ylsulfamyl)-phenyl)-amide, reference compound] | 5–6 X | – | – | – | – | – | –
